Key:
Type in all cases: physicochemical
[1] = β cryptoxanthin stabilizing test, Example 3A (water from Citrus unshiu concentrated liquid with additive L-ascorbic acid, stored at 40° C.); conditions: 0.0015 parts by mass β cryptoxanthin (concentrated liquid) in water
Procedure: The prepared concentrated liquid derived from Citrus unshiu and water were mixed. Thus, a mixed solution was prepared. The mixing was conducted so that a mass ratio between β cryptoxanthin contained in the concentrated liquid and the mixed water became […] (0.0015 parts by mass of β cryptoxanthin with respect to 100 parts by mass of finally obtained β cryptoxanthin-containing water). Vitamin C (L-ascorbic acid) was added to the mixed solution, which was then mixed by stirring. Thus, β cryptoxanthin-containing waters were prepared. The total amounts of L-ascorbic acid in the respective β cryptoxanthin-containing waters were set to 0.005, 0.01, 0.02, 0.1, and 0.2 parts by mass with respect to 100 parts by mass of entire β cryptoxanthin-containing water by adding vitamin C. 50 g of five types of the β cryptoxanthin-containing waters were filled in the respective brown bottles. Thereafter, the brown bottles were subjected to a heat sterilization treatment under the condition at 90° C. for 30 minutes, which were then stored at 40° C. Sampling was conducted on a storage start date and after two months from the same. The respective amounts of β cryptoxanthin in samples were measured in the same manner as in Example 1A. Then, assuming that the amount of β cryptoxanthin on the storage start date was 100%, residual ratios of β cryptoxanthin were determined.

[2] = β cryptoxanthin stabilizing test, Example 2B (water from powder, varied β cryptoxanthin concentration, stored at 45° C.)
Procedure: The prepared powder derived from Citrus unshiu and water were mixed. Thus, β cryptoxanthin-containing waters were prepared. In the mixing, concentrations of the β cryptoxanthin were set to predetermined parts by mass with respect to 100 parts by mass of a combination of the water and components contained in the water. The predetermined parts by mass were 0.0005, 0.0010, 0.0022, 0.0031, 0.0060, and 0.0079 parts by mass. Thus, six types of β cryptoxanthin-containing waters each having a different concentration of the β cryptoxanthin were prepared. Each of the β cryptoxanthin-containing waters was sufficiently stirred. Thereafter 90 g of the resultant β cryptoxanthin-containing water was filled in an aluminum pouch, which was then sterilized under the condition at 85° C. for 30 minutes. Six types of the β cryptoxanthin-containing waters of the example were stored at 45° C. for one month. Sampling was conducted on a storage start date and after one month from the storage start date. The respective amounts of β cryptoxanthin in samples were measured by HPLC in the same manner as in Example 1B. Then, assuming that the amount of β cryptoxanthin on the storage start date was 100%, residual ratios of β cryptoxanthin were determined.

[3] = β cryptoxanthin stabilizing test, Example 3B (water from concentrated liquid, varied β cryptoxanthin concentration, stored at 45° C.)
Procedure: The prepared concentrated liquid derived from Citrus unshiu and water were mixed. Thus, β cryptoxanthin-containing waters were prepared. In the mixing, concentrations of the β cryptoxanthin were set to predetermined parts by mass with respect to 100 parts by mass of a combination of the water and components contained in the water. The predetermined parts by mass were 0.0007, 0.0015, 0.0025, 0.0053, and 0.0072 parts by mass. Thus, five types of β cryptoxanthin-containing waters each having a different concentration of the β cryptoxanthin were prepared. Each of the β cryptoxanthin-containing waters was sufficiently stirred. Thereafter 90 g of the resultant β cryptoxanthin-containing water was filled in an aluminum pouch, which was then sterilized under the condition at 85° C. for 30 minutes.
Five types of the β cryptoxanthin-containing waters of the example were stored at 45° C. for one month. Sampling was conducted on a storage start date and after one month from the storage start date. The respective amounts of β cryptoxanthin in samples were measured by HPLC in the same manner as in Example 1B. Then, assuming that the amount of β cryptoxanthin on the storage start date was 100%, residual ratios of β cryptoxanthin were determined.

CC1=C(/C=C/C(C)=C/C=C/C(C)=C/C=C/C=C(C)/C=C/C=C(C)/C=C/C2=C(C)C[C@@H](O)CC2(C)C)C(C)(C)CCC1 [β cryptoxanthin]
Residual ratio of β cryptoxanthin Storage for two months (%) ([1]; additive L-ascorbic acid 0.005 parts by mass): 64.3% | Residual ratio of β cryptoxanthin Storage for two months (%) ([1]; additive L-ascorbic acid 0.01 parts by mass): 64.9% | Residual ratio of β cryptoxanthin Storage for two months (%) ([1]; additive L-ascorbic acid 0.02 parts by mass): 99.1% | Residual ratio of β cryptoxanthin Storage for two months (%) ([1]; additive L-ascorbic acid 0.1 parts by mass): 100% | Residual ratio of β cryptoxanthin Storage for two months (%) ([1]; additive L-ascorbic acid 0.2 parts by mass): 37.9% | Residual ratio of β cryptoxanthin Storage for one month (%) ([2]; β cryptoxanthin 0.0005 parts by mass (powder) in water): 5.3% | Residual ratio of β cryptoxanthin Storage for one month (%) ([2]; β cryptoxanthin 0.0010 parts by mass (powder) in water): 45.6% | Residual ratio of β cryptoxanthin Storage for one month (%) ([2]; β cryptoxanthin 0.0022 parts by mass (powder) in water): 75.5% | Residual ratio of β cryptoxanthin Storage for one month (%) ([2]; β cryptoxanthin 0.0031 parts by mass (powder) in water): 82.4% | Residual ratio of β cryptoxanthin Storage for one month (%) ([2]; β cryptoxanthin 0.0060 parts by mass (powder) in water): 97.9% | Residual ratio of β cryptoxanthin Storage for one month (%) ([2]; β cryptoxanthin 0.0079 parts by mass (powder) in water): 101.1% | Residual ratio of β cryptoxanthin Storage for one month (%) ([3]; β cryptoxanthin 0.0007 parts by mass (concentrated liquid) in water): 42.6% | Residual ratio of β cryptoxanthin Storage for one month (%) ([3]; β cryptoxanthin 0.0015 parts by mass (concentrated liquid) in water): 78.0% | Residual ratio of β cryptoxanthin Storage for one month (%) ([3]; β cryptoxanthin 0.0025 parts by mass (concentrated liquid) in water): 95.8% | Residual ratio of β cryptoxanthin Storage for one month (%) ([3]; β cryptoxanthin 0.0053 parts by mass (concentrated liquid) in water): 96.6% | Residual ratio of β cryptoxanthin Storage for one month (%) ([3]; β cryptoxanthin 0.0072 parts by mass (concentrated liquid) in water): 100.8%

— US20120156333A1, “STABILIZED BETA CRYPTOXANTHIN-CONTAINING WATER AND THE USE THEREOF” (ARKRAY, INC., priority 2010, published 2012)
